Results taken from patent US20230091047A1 (priority 2019, published 2023).

Experiments:
[1] = in vitro; format: cell-based; conditions: human, HepG2 or HepG2.117 cells, 3-days incubation (unmarked values), ATPlite; mean value
How it was run: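 Luminescent ATP quantitation served as the viability endpoint following a 3- or 4-day incubation with test compounds.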

[2] = tested on: HBV (HepG2.117 cell line, inducibly HBV producing); test: Anti-HBV activity: intracellular HBV DNA by real-time PCR in HepG2.117 cells after 3 days of treatment; format: cell-based, hepatitis B virus; conditions: Hepatitis B virus, HepG2.117, 72 h, HepG2.117 cells, 3 days of treatment, intracellular HBV DNA by real-time PCR; mean value; read-out: EC50 (μM, mean value)
How it was run: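 Inducible HBV-producing HepG2.117 line (Tet-off); 3-day exposure to serially diluted compound after induction; real-time PCR of intracellular viral DNA.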

Row | SMILES | CC50 at 3 days [1] [µM] | EC50 [2] [µM]
1 | CNC(=O)c1ccc(-n2c(NCc3c[nH]c4ccc(OC)cc34)nc3c(c2=O)C[C@@H](C)N(C(=O)c2ccc(Cl)c(Cl)c2)C3)cc1 [Compound C275, 4-[(6R)-7-(3,4-dichlorobenzoyl)-2-{[(5-methoxy-1H-indol-3-yl)methyl]amino}-6-methyl-4-oxo-5,6,7,8-tetrahydropyrido[3,4-d]pyrimidin-3(4H)-yl]-N-methylbenzamide] | > 50 | 1.58
2 | CNC(=O)c1ccc(-n2c(N[C@@H](C)CCO)nc3c(c2=O)C[C@@H](C)N(C(=O)c2ccc(Cl)c(Cl)c2)C3)cc1 [Compound C276, 4-[(6R)-7-(3,4-dichlorobenzoyl)-2-{[(2S)-4-hydroxybutan-2-yl]amino}-6-methyl-4-oxo-5,6,7,8-tetrahydropyrido[3,4-d]pyrimidin-3(4H)-yl]-N-methylbenzamide] | > 50 | 1.68
3 | CNC(=O)c1ccc(-n2c(NCc3c[nH]c4ccccc34)nc3c(c2=O)C[C@@H](C)N(C(=O)c2ccc(Cl)c(Cl)c2)C3)cc1 [Compound C277, 4-[(6R)-7-(3,4-dichlorobenzoyl)-2-{[(1H-indol-3-yl)methyl]amino}-6-methyl-4-oxo-5,6,7,8-tetrahydropyrido[3,4-d]pyrimidin-3(4H)-yl]-N-methylbenzamide] | 40.1 | 1.27
4 | CNC(=O)c1ccc(-n2c(Nc3ccon3)nc3c(c2=O)C[C@@H](C)N(C(=O)c2ccc(Cl)c(Cl)c2)C3)cc1 [Compound C278, 4-[(6R)-7-(3,4-dichlorobenzoyl)-6-methyl-2-[(1,2-oxazol-3-yl)amino]-4-oxo-5,6,7,8-tetrahydropyrido[3,4-d]pyrimidin-3(4H)-yl]-N-methylbenzamide] | > 50 | 11
5 | CC(C)Nc1ncc(-n2c(NC(C)C)nc3c(c2=O)C[C@@H](C)N(C(=O)c2ccc(Cl)c(Cl)c2)C3)cn1 [Compound C279, (6R)-7-(3,4-dichlorobenzoyl)-6-methyl-2-[(propan-2-yl)amino]-3-{2-[(propan-2-yl)amino]pyrimidin-5-yl}-5,6,7,8-tetrahydropyrido[3,4-d]pyrimidin-4(3H)-one] | > 46 | 0.31
6 | CNC(=O)[C@H]1CC[C@@H](n2c(NC(C)C)nc3c(c2=O)C[C@@H](C)N(C(=O)c2ccc(Cl)c(Cl)c2)C3)CC1 [Compound C280, cis-4-[(6R)-7-(3,4-dichlorobenzoyl)-6-methyl-4-oxo-2-[(propan-2-yl)amino]-5,6,7,8-tetrahydropyrido[3,4-d]pyrimidin-3(4H)-yl]-N-methylcyclohexane-1-carboxamide] | 24.6 | 0.1
7 | CNC(=O)c1ccc(-n2c(NC(C)C)nc3c(c2=O)C[C@@H](C)N(C(=O)c2ccc(Cl)c(Cl)c2)C3)nn1 [Compound C281, 6-[(6R)-7-(3,4-dichlorobenzoyl)-6-methyl-4-oxo-2-[(propan-2-yl)amino]-5,6,7,8-tetrahydropyrido[3,4-d]pyrimidin-3(4H)-yl]-N-methylpyridazine-3-carboxamide] | > 50 | 0.16
8 | CNC(=O)c1ccc(-n2c(NCc3ccc4[nH]ccc4c3)nc3c(c2=O)C[C@@H](C)N(C(=O)c2ccc(Cl)c(Cl)c2)C3)cc1 [Compound C284, 4-[(6R)-7-(3,4-dichlorobenzoyl)-2-{[(1H-indol-5-yl)methyl]amino}-6-methyl-4-oxo-5,6,7,8-tetrahydropyrido[3,4-d]pyrimidin-3(4H)-yl]-N-methylbenzamide] | > 50 | 0.13
9 | CNC(=O)c1cnc(-n2c(NC)nc3c(c2=O)C[C@@H](C)N(C(=O)c2ccc(Cl)c(Cl)c2)C3)cn1 [Compound C287, 5-[(6R)-7-(3,4-dichlorobenzoyl)-6-methyl-2-(methylamino)-4-oxo-5,6,7,8-tetrahydropyrido[3,4-d]pyrimidin-3(4H)-yl]-N-methylpyrazine-2-carboxamide] | > 50 | 0.75
10 | CNC(=O)c1cnc(-n2c(NC(C)C)nc3c(c2=O)C[C@@H](C)N(C(=O)c2ccc(Cl)c(Cl)c2)C3)cn1 [Compound C288, 5-[(6R)-7-(3,4-dichlorobenzoyl)-6-methyl-4-oxo-2-[(propan-2-yl)amino]-5,6,7,8-tetrahydropyrido[3,4-d]pyrimidin-3(4H)-yl]-N-methylpyrazine-2-carboxamide] | > 50 | 0.07
11 | CNC(=O)c1ccc(-n2c(OC(C)C)nc3c(c2=O)C[C@@H](C)N(C(=O)c2ccc(Cl)c(Cl)c2)C3)cc1 [Compound C289, 4-[(6R)-7-(3,4-dichlorobenzoyl)-6-methyl-4-oxo-2-[(propan-2-yl)oxy]-5,6,7,8-tetrahydropyrido[3,4-d]pyrimidin-3(4H)-yl]-N-methylbenzamide] | > 50 | 0.08
12 | CNC(=O)c1cc(-n2c(NC(C)C)nc3c(c2=O)C[C@@H](C)N(C(=O)c2ccc(Cl)c(Cl)c2)C3)nn1C [Compound C292, 3-[(6R)-7-(3,4-dichlorobenzoyl)-6-methyl-4-oxo-2-[(propan-2-yl)amino]-5,6,7,8-tetrahydropyrido[3,4-d]pyrimidin-3(4H)-yl]-N,1-dimethyl-1H-pyrazole-5-carboxamide] | > 50 | 0.04
13 | CNC(=O)c1ccc(-n2c(NC(C)C)nc3c(c2=O)C[C@@H](C)N(C(=O)c2ccc(Cl)c(Cl)c2)C3)c(Cl)c1 [Compound C293, 3-chloro-4-[(6R)-7-(3,4-dichlorobenzoyl)-6-methyl-4-oxo-2-[(propan-2-yl)amino]-5,6,7,8-tetrahydropyrido[3,4-d]pyrimidin-3(4H)-yl]-N-methylbenzamide] | 34.9 | 0.06
14 | CNC(=O)c1ccc(-n2c(N[C@@H](C)C3CC3)nc3c(c2=O)C[C@@H](C)N(C(=O)c2ccc(Cl)c(Cl)c2)C3)cc1 [Compound C294, 4-[(6R)-2-{[(1S)-1-cyclopropylethyl]amino}-7-(3,4-dichlorobenzoyl)-6-methyl-4-oxo-5,6,7,8-tetrahydropyrido[3,4-d]pyrimidin-3(4H)-yl]-N-methylbenzamide] | 26.5 | 0.05
15 | CNC(=O)c1ccc(-n2c(N[C@H](C)C3CC3)nc3c(c2=O)C[C@@H](C)N(C(=O)c2ccc(Cl)c(Cl)c2)C3)cc1 [Compound C295, 4-[(6R)-2-{[(1R)-1-cyclopropylethyl]amino}-7-(3,4-dichlorobenzoyl)-6-methyl-4-oxo-5,6,7,8-tetrahydropyrido[3,4-d]pyrimidin-3(4H)-yl]-N-methylbenzamide] | 37.2 | 0.22
16 | CNC(=O)c1ccc(-n2c(NC3(C)CC3)nc3c(c2=O)C[C@@H](C)N(C(=O)c2ccc(Cl)c(Cl)c2)C3)cc1 [Compound C297, 4-[(6R)-7-(3,4-dichlorobenzoyl)-6-methyl-2-[(1-methylcyclopropyl)amino]-4-oxo-5,6,7,8-tetrahydropyrido[3,4-d]pyrimidin-3(4H)-yl]-N-methylbenzamide] | > 50 | 0.05
17 | CNC(=O)c1ccc(-n2c(NC(C)C)nc3c(c2=O)C[C@@H](C)N(C(=O)c2ccc(Cl)c(Cl)c2)C3)c(C)c1 [Compound C300a, 4-[(6R)-7-(3,4-dichlorobenzoyl)-6-methyl-4-oxo-2-[(propan-2-yl)amino]-5,6,7,8-tetrahydropyrido[3,4-d]pyrimidin-3(4H)-yl]-N,3-dimethylbenzamide] | > 50 | 0.06
